Laboratory results taken from patent US7572434B2, “Method for assessing the effect of a drug on long term memory formation” (Cold Spring Harbor Laboratory, priority 1994, dated 2009).

How the values were obtained:
[1] = test system: wild-type (Can-S) flies; experiment: Pavlovian olfactory learning: memory retention after massed or spaced training in flies fed cycloheximide; type: in vivo, Drosophila; details: for one-day memory after massed training: vs control flies; for one-day memory retention after spaced training: vs glucose-fed flies
Description: For experiments on one day retention after massed or spaced training, flies were fed 35 mM CXM and (w/v) 5% glucose dissolved in 3% ethanol. Groups of 100 flies were placed in feeding tubes (Falcon 2017) containing one 1.0×2.5 cm Whatmann 3MM filter paper strips that was soaked with a total of 126 μl of solution.
The feeding period was limited to 12-14 hrs prior to training, or to the 24-hr retention interval after training. Flies which were fed prior to training were transferred directly to the training apparatus after feeding, subjected to massed or spaced training, then transferred to test tubes containing filter paper strips soaked with 5% glucose during the 24-hr interval. Flies which were fed after training were trained, then transferred immediately to test tubes containing filter paper strips soaked with 5% glucose solution which was laced with 35 mM CXM. Flies remained in the test tubes for the duration of the 24-hr retention interval.
Flies were trained with an automated version of the learning procedure of Tully, T. and W. G. Quinn, J. Comp. Physiol., 157: 263-277 (1985). In brief, flies were trapped in a training chamber, the inside of which was covered with an electrifiable copper grid. Groups of about 100 flies were exposed sequentially to two odors [either octanol (OCT) or methylcyclohexanol (MCH)], which were carried through the training chamber in a current of air, for 60 seconds with 45 seconds rest intervals after each odor presenation. During exposure to the first odor, flies also were subjected to twelve 1.5-second pulses of 60 V DC with a 5-second interpulse interval. After training, flies were transferred to food vials for a particular retention interval. Conditioned odor-avoidance responses then were tested by transferring flies to the choice point of a T-maze, where they were exposed simultaneously to OCT and MCH carried in the distal ends of the T-maze arms and out the choice point on converging currents of air. Flies were allowed to distribute themselves in the T-maze arms for two minutes, after which they were trapped in their respective arms, anesthetized and counted. The “percent correct” then was calculated as the number of flies avoiding the shock-paired odor (they were in the opposite T-maze arm) divided by the total number of flies in both arms. (The number of flies left at the choice point, which usually was less than 5%, were not included in this calculation). Finally, a performance index (PI) was calculated by averaging the percent corrects of two reciprocal groups of flies—one where OCT and shock were paired, the other where MCH and shock were paired—and then by normalizing the average so that a PI=0 represented a 50:50 distribution in the T-maze and a PI=100 represented 100% avoidance of the shock-paired odor. For these studies, three different training protocols were used: 1. One-cycle training consisted of the training session just described. 2. Massed training consisted of 10 of these training cycles delivered one right after the other. 3. Spaced training consisted of 10 training cycles with a 15-min rest interval between each. One-cycle training was used to assay learning, while massed and spaced was used to assay consolidated memories.
A. One-day memory in wild-type flies fed CXM before or immediately after massed or spaced training (FIG. 8): PIs from these four drug treatments (−CXM before, −CXM after, +CXM before and +CXM after) and two training procedures (massed and spaced) were subjected to a TWO-WAY ANOVA with DRUG (F(3,56)=8.93; P<0.001) and TRAINing (F(1,56)=18.10, P<0.001) as main effects and DRUG×TRAIN (F(3,56)=4.68, P=0.006) as the interaction term. The six planned comparisons were judged significant if P≦0.01.
Different groups of wild-type (Can-S) flies were fed 5% glucose solution alone (hatched bars) or laced with 35 mM CXM (striped bars) either for 12-14 hr overnight before massed or spaced training or for the 24-hr retention interval immediately after training. […]

[2] = target: T1, DNOS (Drosophila nitric oxide synthase) (Drosophila melanogaster, UniProt Q27571, DUP33-33/S105L/S1197R/S20A/S287C); experiment: DNOS enzyme activity, conversion of 3H-L-arginine to 3H-L-citrulline in extracts of dNOS-transfected 293 cells; type: biochemical
T1 construct: contained dNOS cDNA (with an XbaI site engineered immediately upstream of the ATG codon) cloned into the XbaI and SmaI sites; made in house; host or cells: 293 human embryonic kidney cells, transient calcium-phosphate transfection; unpurified soluble protein extract
From the text: [In a parallel experiment, the specific activity of rat neuronal NOS expressed from the same vector in 293 cells was 3.0±0.02 pmol/mg/min, N=4]. DNOS activity was dependent on exogenous Ca^2+/calmodulin and on NADPH, two cofactors necessary for activity of constitutive mammalian NOSs (Iyengar, R., Proc. Natl. Acad. Sci. USA, 84: 6369-6373 (1987); Bredt, D. S., Proc. Natl. Acad. Sci. USA, 87: 682-685 (1990)). DNOS activity was reduced 90% by the Ca^2+ chelator EGTA (FIG. 17B, group C). Also, 500 μM N-(6-aminohexyl)-1-naphthalene-sulfonamide (W5), a calmodulin antagonist which inhibits activity of neuronal NOS (Bredt, D. S., Proc. Natl. Acad. Sci. USA, 87: 682-685 (1990)), diminished DNOS activity to 18% (0.0222±0.001 pmol/mg/min, N=2). In the absence of exogenous NADPH, DNOS (or nNOS) activity was reduced 20% (0.1061±0.011 pmol/mg/min, N=4 for DNOS; 2.7935±0.033 pmol/mg/min, N=2 for NNOS). DNOS activity also was blocked by inhibitors of mammalian NOSs (Rees, D. D., Br. J. Pharmacol., 101: 746-752 (1990)).
The expression construct for activity assays contained dNOS cDNA (with an XbaI site engineered immediately upstream of the ATG codon) cloned into the XbaI and SmaI sites of the pCGN expression vector (M. Tanaka and W. Herr, Cell, 60: 375 (1990)). 293 human kidney cells were transfected with 15 μg of the dNOS construct, or vector DNA, and precipitated with calcium phosphate as described in (M. J. Imperiale, L. T. Feldman and J. R. Nevins, Cell, 35: 127 (1983)). Cells were collected 2 days later and protein extracts were prepared as described in (J. Sambrook, E. F. Fritsch, T. Maniatis, Molecular Cloning: A Laboratory Manual (Cold Spring Harbor Laboratory, Cold Spring Harbor, N.Y., 1989)).
The enzymatic assay was done essentially as described previously (D. Bredt and S. Snyder, Proc. Natl. Acad. Sci. USA, 87: 682 (1990)). A […] containing 25 μl (50-100 μg) of soluble protein extract, 50 mM Hepes pH 7.4, […], 3 μM FMN, 10 μM tetrahydrobiopterin (ICN), 1 mM DTT, 0.8 mM CaCl2, 1 mM NADPH, 10 μg/ml calmodulin, 2 μl of [^3H]L-arginine (35.7 Ci/mmol, NEN) and 50 mM L-valine in was incubated for 60 minutes at 37° C. The reaction was stopped with 0.5 ml 20 mM Hepes pH 5.5, 2 mM EDTA, 2 mM EGTA, loaded on 0.5 ml Dowex AG 50WX-8 (Na^+ form) column and eluted with 3×0.5 ml of the stop buffer. Radioactivity present in the eluent was quantified in a scintillation counter.
Enzymatic activity was detected only in cells transfected with dNOS cDNA construct (groups B-D) and is presented as specific activity (pmol of citrulline/mg/min.). The DNOS activity also was measured in the presence of 1 mM EGTA without exogenous Ca^2+ or calmodulin (group C), or in the presence of […] (group D). N=4 reactions per group.

[3] = test system: PKA-responsive transcription (CRE-directed reporter) in F9 cells; experiment: PKA-responsive transcription from the CRE-containing D(-71) CAT reporter in transiently transfected F9 cells; type: cell-based; details: cotransfection of dCREB2-a and PKA; CAT/βgal ratios standardized to PKA-transfected dishes
Description: Undifferentiated F9 cells were maintained and transfected using the calcium phosphate method as described in Darrow, A. L. et al., “Maintenance and Use of F9 Teratocarcinoma Cells”, In Meth. Enzymol., v. 190 (1990), except that chloroquine was added to […] immediately before transfection and precipitates were washed off ten hours after transfection, at which time the dishes received fresh chloroquine-free medium. Amounts of DNA in transfections were made equivalent by adding RSV-0 where required. Cells were harvested 30 hours after transfection. Extracts were made by three cycles of freeze/thawing, with brief vortexing between cycles. Particulate matter was cleared from extracts by ten minutes of centrifugation in the cold. β-galactosidase assays were performed as described in Miller, J. H., Experiments in Molecular Genetics, Cold Spring Harbor Laboratory, Cold Spring Harbor, N.Y., 1972. CAT assays were performed as described in Sheen, J. Y. and B. Seed, Gene, 67: 271-277 (1988) using aliquots of extract heat-treated at 65° C. for ten minutes and centrifuged for ten minutes to remove debris. Results reported are from three experiments run on different days with at least three dishes per condition within each experiment. Error bars represent standard error of the mean, with error propagation taken into account (Grossman, M. and H. W. Norton, J. Hered., 71: 295-297 (1980)).
F9 cells were transiently transfected with 10 μg of D(−71) CAT plasmid as a CRE-directed reporter. 5 μg of RSV-βgal reporter was included in each dish as a normalization control for transfection efficiency. Different groups received 8 μg of dCREB2-a expression vector and 4 μg of PKA expression vector, separately or in combination. Results are expressed as CAT/Pgal enzyme activity ratios, standardized to values obtained with PKA-transfected dishes. […]
Two different dCREB2 isoforms, dCREB2-a and dCREB2-b, have opposite roles in PKA-responsive transcription. […] CREB-dependent changes in gene expression were measured using a cotransfected construct that has a CRE-containing promoter fused to a reporter gene.

[4] = 35 mM CXM fed 12-14 hr before training
[5] = 35 mM CXM fed for the 24-hr retention interval after training
[6] = flies fed CXM immediately before or after training

T1 sequence (Q27571 other isoform, or with tags, fused parts or gaps S20A/DUP33-33/S105L/S287C/S1197R): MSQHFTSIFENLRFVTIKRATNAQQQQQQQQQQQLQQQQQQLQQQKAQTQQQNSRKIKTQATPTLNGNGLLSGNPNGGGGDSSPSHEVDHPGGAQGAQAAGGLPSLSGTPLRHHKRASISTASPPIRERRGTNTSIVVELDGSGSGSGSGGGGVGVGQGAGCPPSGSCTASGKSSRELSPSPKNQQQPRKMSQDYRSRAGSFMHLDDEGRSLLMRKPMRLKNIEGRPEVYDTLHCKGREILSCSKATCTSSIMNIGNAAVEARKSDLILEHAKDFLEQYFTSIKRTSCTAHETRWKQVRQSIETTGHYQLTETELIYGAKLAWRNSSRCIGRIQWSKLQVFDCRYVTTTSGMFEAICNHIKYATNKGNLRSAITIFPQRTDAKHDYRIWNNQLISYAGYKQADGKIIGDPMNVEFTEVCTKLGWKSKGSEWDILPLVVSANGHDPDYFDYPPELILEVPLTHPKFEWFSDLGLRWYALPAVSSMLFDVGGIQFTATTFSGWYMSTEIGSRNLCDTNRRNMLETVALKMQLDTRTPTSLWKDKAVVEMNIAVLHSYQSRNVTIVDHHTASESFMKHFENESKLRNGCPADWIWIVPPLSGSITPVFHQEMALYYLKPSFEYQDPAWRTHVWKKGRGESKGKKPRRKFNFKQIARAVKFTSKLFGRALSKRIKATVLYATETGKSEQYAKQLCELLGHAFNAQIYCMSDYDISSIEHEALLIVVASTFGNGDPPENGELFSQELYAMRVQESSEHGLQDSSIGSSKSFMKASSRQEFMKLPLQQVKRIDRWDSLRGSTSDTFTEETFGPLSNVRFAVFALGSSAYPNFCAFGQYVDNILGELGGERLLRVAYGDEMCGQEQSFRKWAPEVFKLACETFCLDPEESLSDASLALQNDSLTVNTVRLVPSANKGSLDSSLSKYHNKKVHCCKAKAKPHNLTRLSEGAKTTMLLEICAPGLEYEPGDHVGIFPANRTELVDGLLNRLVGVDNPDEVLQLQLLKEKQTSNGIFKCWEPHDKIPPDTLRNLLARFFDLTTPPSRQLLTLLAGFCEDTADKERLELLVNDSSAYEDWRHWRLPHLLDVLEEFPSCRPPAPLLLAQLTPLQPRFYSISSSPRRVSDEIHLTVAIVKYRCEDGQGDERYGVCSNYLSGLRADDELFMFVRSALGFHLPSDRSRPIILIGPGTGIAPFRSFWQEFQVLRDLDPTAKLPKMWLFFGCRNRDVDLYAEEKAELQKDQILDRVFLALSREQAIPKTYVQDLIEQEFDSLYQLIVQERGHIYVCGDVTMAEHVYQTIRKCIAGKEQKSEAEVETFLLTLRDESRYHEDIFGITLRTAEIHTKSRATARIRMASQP

Molecule: C[C@@H]1C[C@@H]([C@H](O)CC2CC(=O)NC(=O)C2)C(=O)[C@@H](C)C1 [CXM, cycloheximide]
- one-day memory after massed training [1, 4]: no difference was detected
- one-day memory retention after spaced training [1, 4]: significantly lower than normal
- one-day memory after massed training [1, 5]: no difference was detected
- one-day memory retention after spaced training [1, 5]: significantly lower than normal
- anesthesia-resistant memory (ARM) [1, 6]: not affected
- long-term memory (LTM) [1, 6]: completely blocked

Molecule: O=C(O)CN(CCOCCOCCN(CC(=O)O)CC(=O)O)CC(=O)O [EGTA]
- DNOS activity reduced ([2]; 1 mM EGTA without exogenous Ca2+ or calmodulin (FIG. 17B, group C)): 90%

Molecule: COC(=O)[C@@H](N)CCCNC(=N)N[N+](=O)[O-] [L-NAME, N^G-nitro-L-arginine methyl ester]
- DNOS activity reduced ([2]; 100 mM L-NAME with exogenous Ca2+/calmodulin (FIG. 17B, group D)): 84%

Molecule: CC(=O)O.CNC(=N)NCCC[C@H](N)C(=O)O [N^G-monomethyl-L-arginine acetate]
- block of DNOS activity ([2]; 100 μM N^G-monomethyl-L-arginine acetate): complete block
- DNOS specific activity ([2]; 100 μM N^G-monomethyl-L-arginine acetate, N=2): 0.0001 ± 0.0002 pmol/mg/min

Molecule: NCCCCCCNS(=O)(=O)c1cccc2ccccc12 [W5, N-(6-aminohexyl)-1-naphthalene-sulfonamide]
- DNOS specific activity ([2]; 500 μM W5, N=2): 0.0222 ± 0.001 pmol/mg/min
- remaining activity at 500 µM ([2]; 500 μM W5, read-out: DNOS activity diminished to (remaining activity)): 18%

B1: dCREB2-a: Drosophila dCREB2 isoform, PKA-responsive transcriptional activator (SEQ ID NO.: 2), expressed from RSV-dCREB2-a (protein, listed as Drosophila sp.)
chain: MDNSIVEENGNSSAASGSNDVVDVVAQQAAAAVGGGGGGGGGGGGGGNPQQQQQNPQSTTAGGPTGATNNAQGGGVSSVLTTTANCNIQYPIQTLAQHGLQVSIWGPGAWCQLSSVRCYGSQPEVATKDVQSVIQANPSGVIQTAAGTQQQQQALAAATAMQKVVYVAKPPNSTVIHTTPGNAVQVRNKIPPTFPCKIKPEPNTQHPEDSDESLSDDDSQHHRSELTRRPSYNKIFTEISGPDMSGASLPMSDGVLNSQLVGTGAGGNAANSSLMQLDPTYYLSNRMSYNTNNSGIAEDQTRKREIRLQKNREAARECRRKKKEYIKCLENRVAVLENQNKALIEELKSLKELYCQTKND
- activation of CRE reporter relative to PKA alone [3]: 5.4 fold
